Results reported in ChEMBL document CHEMBL4177587, “SIRT6 inhibitors with salicylate-like structure show immunosuppressive and chemosensitizing effects” (Bioorg Med Chem, 2017).
≈ marks a conversion by molar mass, not a printed value. Calls of active or inactive are those of the source. No cut-off for these calls is given here.

How the values were obtained:
[1] = biological target: T1, NAD-dependent protein deacylase sirtuin-6 (Homo sapiens, UniProt Q8N6T7); assay: Inhibition of human recombinant SIRT6 assessed as reduction in NAD+-dependent deacetylase activity at 200 uM using Arg-His-Lys-Lys(epsilon-acetyl)-AMC substrate and NAD+ by fluorescence based assay
Homo sapiens [2] = organism: Homo sapiens; assay: Selectivity index, ratio of IC50 for human recombinant SIRT1 to IC50 for human recombinant SIRT6
Homo sapiens [3] = organism: Homo sapiens; assay: Selectivity index, ratio of IC50 for human recombinant SIRT2 to IC50 for human recombinant SIRT6
[4] = biological target: T1, NAD-dependent protein deacylase sirtuin-6; assay: Inhibition of SIRT6 in human BxPC3 cells assessed as increase in H3K9 acetylation by immunoblotting relative to untreated control; format: cell-based; design: concentration or dose not given beside the values
[5] = biological target: T1, NAD-dependent protein deacylase sirtuin-6; assay: Inhibition of SIRT6 in human BxPC3 cells assessed as increase in 2-NBDG uptake at 100 uM incubated for 18 hrs by glucose uptake assay; format: cell-based
[6] = biological target: T1, NAD-dependent protein deacylase sirtuin-6; assay: Inhibition of SIRT6 in human BxPC3 cells assessed as reduction in TNFalpha production at 100 uM incubated for 18 hrs by ELISA method; format: cell-based
[7] = biological target: T2, NAD-dependent protein deacetylase sirtuin-1 (Homo sapiens, UniProt Q96EB6); assay: Inhibition of human recombinant SIRT1 assessed as reduction in NAD+-dependent deacetylase activity using Arg-His-Lys-Lys(epsilon-acetyl)-AMC substrate and NAD+ by fluorescence based assay
T2 sequence (Q96EB6 whole entry): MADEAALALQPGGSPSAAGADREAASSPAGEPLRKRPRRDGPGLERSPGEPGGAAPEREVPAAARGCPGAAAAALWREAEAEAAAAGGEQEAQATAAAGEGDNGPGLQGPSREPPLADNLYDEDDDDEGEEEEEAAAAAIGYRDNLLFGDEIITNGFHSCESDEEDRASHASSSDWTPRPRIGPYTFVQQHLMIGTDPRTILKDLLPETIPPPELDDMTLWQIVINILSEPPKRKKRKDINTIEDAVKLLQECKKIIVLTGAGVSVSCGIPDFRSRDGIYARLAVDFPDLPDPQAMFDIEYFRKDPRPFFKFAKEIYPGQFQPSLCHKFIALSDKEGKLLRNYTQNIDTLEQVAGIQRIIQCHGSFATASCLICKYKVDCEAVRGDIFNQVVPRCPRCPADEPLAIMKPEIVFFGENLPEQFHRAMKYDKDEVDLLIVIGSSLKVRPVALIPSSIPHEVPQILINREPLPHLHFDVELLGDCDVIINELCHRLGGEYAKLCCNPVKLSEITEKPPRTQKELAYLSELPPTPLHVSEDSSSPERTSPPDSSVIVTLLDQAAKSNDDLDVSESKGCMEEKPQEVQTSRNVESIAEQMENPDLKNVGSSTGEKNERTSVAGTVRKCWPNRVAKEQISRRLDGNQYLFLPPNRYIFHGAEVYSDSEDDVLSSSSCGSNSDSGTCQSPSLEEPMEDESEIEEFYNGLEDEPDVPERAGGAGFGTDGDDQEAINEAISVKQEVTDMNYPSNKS

[8] = biological target: T3, NAD-dependent protein deacetylase sirtuin-2 (Homo sapiens, UniProt Q8IXJ6); assay: Inhibition of human recombinant SIRT2 assessed as reduction in NAD+-dependent deacetylase activity using Arg-His-Lys-Lys(epsilon-acetyl)-AMC substrate and NAD+ by fluorescence based assay
T3 sequence (Q8IXJ6 whole entry): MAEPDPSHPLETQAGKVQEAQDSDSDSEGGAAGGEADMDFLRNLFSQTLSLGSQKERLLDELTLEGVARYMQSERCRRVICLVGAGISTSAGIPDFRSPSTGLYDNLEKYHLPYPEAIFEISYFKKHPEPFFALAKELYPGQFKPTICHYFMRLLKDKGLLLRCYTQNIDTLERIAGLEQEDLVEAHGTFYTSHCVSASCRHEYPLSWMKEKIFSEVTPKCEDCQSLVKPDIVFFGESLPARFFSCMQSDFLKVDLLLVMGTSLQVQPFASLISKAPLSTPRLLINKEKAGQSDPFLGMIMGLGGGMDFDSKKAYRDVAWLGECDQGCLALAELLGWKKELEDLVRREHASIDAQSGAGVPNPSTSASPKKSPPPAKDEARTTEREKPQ

[9] = biological target: T1, NAD-dependent protein deacylase sirtuin-6; assay: Competitive inhibition of human recombinant SIRT6 assessed as reduction in NAD+-dependent deacetylase activity at 50 uM using fixed Arg-His-Lys-Lys(epsilon-acetyl)-AMC substrate and varying NAD+ by fluorescence based assay based double-reciprocal plot
[10] = biological target: T1, NAD-dependent protein deacylase sirtuin-6; assay: Competitive inhibition of human recombinant SIRT6 assessed as reduction in NAD+-dependent deacetylase activity at 50 uM using varying Arg-His-Lys-Lys(epsilon-acetyl)-AMC substrate and fixed NAD+ by fluorescence based assay based double-reciprocal plot
[11] = biological target: T1, NAD-dependent protein deacylase sirtuin-6; assay: Inhibition of SIRT6 in human BxPC3 cells assessed as potentiation of gemcitabine-induced cytotoxicity at 30 uM incubated for 72 hrs by Cell-titer96 aqueous one assay; format: cell-based
BXPC-3 = assay: Toxicity in human BxPC3 cells assessed as reduction in cell viability at 30 uM incubated for 72 hrs by Cell-titer96 aqueous one assay; format: cell-based; settings: bxpc-3, 72 h
[12] = Ionisation constant, pKa of the compound; format: physicochemical
[13] = Partition coefficient, log P of the compound; format: physicochemical; settings: octanol/water
[14] = Intrinsic aqueous solubility in surfactant in 9% Tween 80; format: physicochemical; settings: 9% Tween 80 surfactant solution
[15] = Intrinsic aqueous solubility in 1.96% Soluplus solution; format: physicochemical
[16] = Intrinsic aqueous solubility in 23% Captisol; format: physicochemical
[17] = Intrinsic aqueous solubility in PBS at pH 7.4; format: physicochemical
[18] = Fraction unbound in human plasma at 1 ug/ml by rapid equilibrium dialysis; format: ADME, cell-free
[19] = Fraction unbound in human plasma at 10 ug/ml by rapid equilibrium dialysis; format: ADME, cell-free
[20] = Fraction unbound in mouse plasma at 1 ug/ml by rapid equilibrium dialysis; format: ADME, cell-free
[21] = Fraction unbound in mouse plasma at 10 ug/ml by rapid equilibrium dialysis; format: ADME, cell-free
[22] = Stability in mouse plasma assessed as half life at 1 uM at 37 degC measured after 4 hrs; format: ADME, cell-free
[23] = AUC (0 to t) in ICR mouse at 5 mg/kg, ip by LC-MS/MS method; format: ADME, organism-based; settings: in vivo
[24] = AUC (0 to infinity) in ICR mouse at 5 mg/kg, ip by LC-MS/MS method; format: ADME, organism-based; design: dose 5 mg/kg, route intraperitoneal, time infinity; settings: in vivo
[25] = MRT (0 to infinity) in ICR mouse at 5 mg/kg, ip by LC-MS/MS method; format: ADME, organism-based; settings: in vivo
[26] = Terminal half life in ICR mouse at 5 mg/kg, ip by LC-MS/MS method; format: ADME, organism-based; settings: in vivo, read-out: beta t1/2 (converted)
[27] = Tmax in ICR mouse at 5 mg/kg, ip by LC-MS/MS method; format: ADME, organism-based; settings: in vivo
[28] = Cmax in ICR mouse at 5 mg/kg, ip by LC-MS/MS method; format: ADME, organism-based; design: dose 5 mg/kg, route intraperitoneal; settings: in vivo
Mus musculus = assay: Toxicity in ICR mouse assessed as induction of abnormalities at 5 mg/kg, ip; format: organism-based; settings: in vivo
[29] = biological target: T1, NAD-dependent protein deacylase sirtuin-6; assay: Inhibition of human recombinant SIRT6 assessed as reduction in NAD+-dependent deacetylase activity using Arg-His-Lys-Lys(epsilon-acetyl)-AMC substrate and NAD+ by fluorescence based assay
[30] = Intrinsic aqueous solubility in surfactant in 9% TPGS; format: physicochemical; settings: 9% TPGS surfactant solution
[31] = Intrinsic aqueous solubility in all polymers solutions; format: physicochemical
[32] = Intrinsic aqueous solubility in 23% Kleptose HPB; format: physicochemical
[33] = biological target: T1, NAD-dependent protein deacylase sirtuin-6; assay: Inhibition of SIRT6 in human PBMC cells assessed as increase in H3K9 acetylation at 200 uM incubated for 24 hrs by immunoblotting relative to untreated control; format: cell-based
[34] = biological target: T1, NAD-dependent protein deacylase sirtuin-6; assay: Inhibition of SIRT6 in human PBMC cells assessed as increase in H3K56 acetylation at 200 uM incubated for 24 hrs by immunoblotting relative to untreated control; format: cell-based
[35] = biological target: T1, NAD-dependent protein deacylase sirtuin-6; assay: Inhibition of SIRT6 in human PBMC cells assessed as reduction in staphylococcal enterotoxin B-induced cell proliferation at 200 uM incubated for 120 hrs by ATPlite assay; format: cell-based
[36] = biological target: T1, NAD-dependent protein deacylase sirtuin-6; assay: Inhibition of SIRT6 in human PBMC cells assessed as reduction in PHA-induced cell proliferation at 200 uM incubated for 120 hrs by ATPlite assay; format: cell-based
[37] = biological target: T1, NAD-dependent protein deacylase sirtuin-6; assay: Inhibition of SIRT6 in human PBMC cells assessed as reduction in staphylococcal enterotoxin B-induced cell proliferation by measuring CFSE signal level at 200 uM incubated for 120 hrs by CFSE staining based flow FACS assay (reference value: 65%); design: scale not given: the % may be the effect or the level left
[38] = biological target: T1, NAD-dependent protein deacylase sirtuin-6; assay: Inhibition of SIRT6 in human PBMC cells assessed as reduction in PHA-induced cell proliferation by measuring CFSE signal level at 200 uM incubated for 120 hrs by CFSE staining based flow FACS assay (reference value: 66%); design: scale not given: the % may be the effect or the level left

T1 sequence (Q8N6T7 whole entry): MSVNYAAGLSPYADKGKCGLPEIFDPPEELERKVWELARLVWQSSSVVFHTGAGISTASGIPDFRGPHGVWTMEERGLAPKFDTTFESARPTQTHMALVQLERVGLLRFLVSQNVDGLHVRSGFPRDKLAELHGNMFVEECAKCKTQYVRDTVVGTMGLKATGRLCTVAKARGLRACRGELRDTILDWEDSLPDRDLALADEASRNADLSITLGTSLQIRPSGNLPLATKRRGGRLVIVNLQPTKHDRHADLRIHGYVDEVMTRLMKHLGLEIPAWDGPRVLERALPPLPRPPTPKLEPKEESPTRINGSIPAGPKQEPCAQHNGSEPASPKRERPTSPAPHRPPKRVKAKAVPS

Compound: Cc1cc(O)c(C(=O)O)cc1S(=O)(=O)Nc1ccc(NC(=O)NCC2CCCO2)cc1 (stereo unspecified)
- inhibition [1]: 17%

Compound: O=C(Nc1ccc(O)c(C(=O)O)c1)c1cccc(NC(=O)c2ccco2)c1
- Ratio IC50 (Homo sapiens [2]): 17.7
- Ratio IC50 (Homo sapiens [3]): 8.44
- fold change (FC) [4]: 2.1
- fold change (FC) [5]: 1.3
- inhibition [6]: 52%

Compound: O=C(Nc1ccc(O)c(C(=O)O)c1)c1ccc(NC(=O)c2ccco2)cc1
- inhibition [1]: 100%
- IC50 [7]: 783 µM
- IC50 [8]: 453 µM
- inhibition [9]: Active
- inhibition [10]: Active
- fold change (FC) [4]: 1.9
- fold change (FC) [5]: 1.4
- inhibition [6]: 78%
- inhibition [11]: Active
- Activity (BXPC-3): Non-Toxic
- pKa [12]: 2.58
- logP [13]: 2.6
- solubility [14]: 1700 µg/mL (≈ 4640 µM)
- solubility [15]: 760 µg/mL (≈ 2070 µM)
- solubility [16]: 650 µg/mL (≈ 1770 µM)
- solubility [17]: 1400 µg/mL (≈ 3820 µM)
- fraction unbound at 1 ug/ml [18]: 0.019
- fraction unbound at 10 ug/ml [19]: 0.024
- fraction unbound at 1 ug/ml [20]: 0.029
- fraction unbound at 10 ug/ml [21]: 0.046
- t1/2 ([22]; 4 h, 1 µM): Stable
- AUC(0-t) [23]: 2830 ng·h/mL
- AUC(0-inf) [24]: 2840 ng·h/mL
- MRT inf [25]: 0.81 h
- half-life [26]: 1.53 h
- Tmax [27]: 0.17 h
- Cmax [28]: 3890 ng/mL
- Activity (Mus musculus): Non-Toxic

Compound: O=C(Nc1ccc(O)c(C(=O)O)c1)c1cccc(N2C(=O)CCS2(=O)=O)c1
- inhibition [1]: 54%

Compound: O=C(Nc1ccc(O)cc1C(=O)O)c1ccc(N2C(=O)c3ccccc3C2=O)cc1
- inhibition [1]: 100%
- IC50 [29]: 20 µM
- IC50 [7]: 424 µM
- IC50 [8]: 333 µM
- Ratio IC50 (Homo sapiens [2]): 21.2
- Ratio IC50 (Homo sapiens [3]): 16.6
- fold change (FC) [4]: 0.9
- fold change (FC) [5]: 1.1
- inhibition [6]: 13%
- pKa [12]: 3.22
- logP [13]: 3.6
- solubility [30]: 50 µg/mL (≈ 124 µM)
- solubility [31]: 5 µg/mL (≈ 12.4 µM)
- solubility [32]: 50 µg/mL (≈ 124 µM)
- solubility [17]: 70 µg/mL (≈ 174 µM)
- fraction unbound at 1 ug/ml [18]: < 0.001
- fraction unbound at 10 ug/ml [19]: < 0.001
- fraction unbound at 1 ug/ml [20]: < 0.01
- fraction unbound at 10 ug/ml [21]: < 0.01
- half-life at 1 µM [22]: 7.7 h

Compound: Cc1c(NC(=O)c2cccc(NC(=O)c3ccco3)c2)cccc1C(=O)O
- inhibition [1]: 18%

Compound: CCC(CC)C(=O)Nc1cccc(C(=O)Nc2cccc(C(=O)O)c2)c1
- inhibition [1]: 54%

Compound: O=C(Nc1ccc(O)c(C(=O)O)c1)c1ccc(NC(=O)C2CC2)cc1
- inhibition [1]: 50%

Compound: CC(=O)Nc1cccc(NS(=O)(=O)c2cc(C(=O)O)c(O)cc2C)c1
- inhibition [1]: inactive

Compound: O=C(Nc1ccc(C(=O)O)c(O)c1)c1ccc(NC(=O)c2ccco2)cc1
- inhibition [1]: 100%
- IC50 [7]: 599 µM
- IC50 [8]: 482 µM
- inhibition [9]: Active
- inhibition [10]: Active
- fold change (FC) [4]: 2.5
- fold change (FC) [5]: 1.7
- inhibition [6]: 80%
- inhibition [33]: Active
- inhibition [34]: Active
- inhibition [35]: Active
- inhibition [36]: Active
- Activity [37]: 27%
- Activity [38]: 29%
- inhibition [11]: Active
- Activity (BXPC-3): Non-Toxic

Compound: CCC(=O)Nc1ccc(C(=O)Nc2ccc(C(=O)O)c(O)c2)cc1
- inhibition [1]: 70%
